Source: article PMC8253220, “Molecular design, synthesis and in vitro biological evaluation of thienopyrimidine–hydroxamic acids as chimeric kinase HDAC inhibitors: a challenging approach to combat cancer” (Journal of Enzyme Inhibition and Medicinal Chemistry, 2021)
“And” between values parts separate entries of the source, which are not always exact repeats. Identical values can stand only once.

Tests used:
Test in all cases: NCI one-dose screen
Assay type in all cases: cell-based, human
[1] = tested on: A549/ATCC; details: NSCLC A549/ATCC, 10 µM single dose
In short: (§1)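 One concentration (10 μM) applied to each line of the full NCI-60 panel; percent growth compared against untreated cells.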

[2] = tested on: CCRF-CEM; details: Leukemia CCRF-CEM, 10 µM single dose
In short: as §1

[3] = tested on: DU-145; details: Prostate DU-145, 10 µM single dose
In short: as §1

[4] = tested on: EKVX; details: NSCLC EKVX, 10 µM single dose
In short: (§2)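 Single dose of 10 μM tested across the full NCI-60 cell panel. Values are percent growth inhibition relative to untreated control cells, following standard NCI methodology.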

[5] = tested on: HCT-15; details: Colon HCT-15, 10 µM single dose
In short: as §1

[6] = tested on: HOP-62; details: NSCLC HOP-62, 10 µM single dose
In short: (§3)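 Following the standard NCI-60 protocol, compounds were applied once at 10 μM to all 60 cancer lines. Read-out is percent growth versus untreated controls, expressed as inhibition %.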

[7] = tested on: HS 578T; details: Breast HS 578T, 10 µM single dose
In short: as §1

[8] = tested on: HT29; details: Colon HT29, 10 µM single dose
In short: as §1

[9] = tested on: IGROV1; details: Ovarian IGROV1, 10 µM single dose
In short: as §1

[10] = tested on: M14; details: Melanoma M14, 10 µM single dose
In short: as §1

[11] = tested on: MDA-MB-468; details: Breast MDA-MB-468, 10 µM single dose
In short: (§4)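 Each cell line received compound at 10 μM as part of the NCI one-dose protocol. Values reflect growth inhibition percent calculated from growth relative to untreated controls.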

[12] = tested on: MOLT-4; details: Leukemia MOLT-4, 10 µM single dose
In short: as §4

[13] = tested on: NCI-H226; details: NSCLC NCI-H226, 10 µM single dose
In short: as §2

[14] = tested on: NCI/ADR-RES; details: Ovarian NCI/ADR-RES, 10 µM single dose
In short: as §1

[15] = tested on: OVCAR-4; details: Ovarian OVCAR-4, 10 µM single dose
In short: as §1

[16] = tested on: RXF 393; details: Renal RXF 393, 10 µM single dose
In short: as §1

[17] = tested on: SK-MEL-2; details: Melanoma SK-MEL-2, 10 µM single dose
In short: as §3

[18] = tested on: SK-MEL-5; details: Melanoma SK-MEL-5, 10 µM single dose
In short: as §1

[19] = tested on: SNB-75; details: for Growth Percent: CNS SNB-75, 10 µM single dose
In short: as §2

[20] = tested on: SW-620; details: Colon SW-620, 10 µM single dose
In short: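 Compounds were tested at a single dose of 10 μM across the full NCI-60 cell line panel. Growth was expressed as percent growth relative to untreated control cells, reported as percent inhibition.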

[21] = tested on: UACC-62; details: Melanoma UACC-62, 10 µM single dose
In short: as §1

[22] = tested on: UO-31; details: Renal UO-31, 10 µM single dose
In short: as §2

| SMILES | Growth Percent [1] | Growth Percent [2] | Growth Percent [3] | Growth Percent [4] | Growth Percent [5] | Growth Percent [6] | Growth Percent [7] | Growth Percent [8] | Growth Percent [9] | Growth Percent [10] | Growth Percent [11] | Growth Percent [12] | Growth Percent [13] | Growth Percent [14] | Growth Percent [15] | Growth Percent [16] | Growth Percent [17] | Growth Percent [18] | Growth Percent [19] | Growth Percent [20] | other results |
| --- | --- | --- | --- | --- | --- | --- | --- | --- | --- | --- | --- | --- | --- | --- | --- | --- | --- | --- | --- | --- | --- |
| Cc1c(C(=O)NCCCC(=O)NO)sc2ncnc(Nc3ccc(NC(=O)Nc4ccccc4)cc3)c12 [Compound 12a, 1–(4-(6-((4-(hydroxyamino)-4-oxobutyl)carbamoyl)-5-methylthieno[2,3-d]pyrimidin-4-ylamino)phenyl)-3-phenylurea] | 99.6% and 99.69% | 107.0% and 107.09% | 108.5% and 108.51% | 93.22% | 100.2% | 100.0% and 100.08% | 106.3% and 106.34% | 104.7% and 104.74% | 99.0% and 99.07% | 99.0% and 99.09% | 100.0% and 100.06% | 102.6% and 102.68% | 93.3% and 93.35% | 103.7% and 103.79% | 100.6% | 100.1% and 100.13% | 113.3% and 113.39% | 97.8% and 97.81% | 78.1% and 78.17% | 103.3% and 103.39% | Growth Percent [21]: 99.1% and 99.19%; Growth Percent [22]: 75.3% and 75.33% |
| Cc1c(C(=O)NCCC(=O)NO)sc2ncnc(Nc3ccc(F)c(Cl)c3)c12 [Compound 19d, 4–(3-chloro-4-fluorophenylamino)-N-(3-(hydroxyamino)-3-oxopropyl)-5-methylthieno[2,3-d]pyrimidine-6-carboxamide] | 104.3% and 104.35% | 105.2% and 105.23% | 111.2% and 111.26% | 99.4% and 99.43% | 101.5% and 101.58% | 104.5% and 104.52% | 103.1% and 103.12% | 104.1% | 106.2% and 106.28% | 104.7% and 104.71% | 102.7% and 102.77% | 115.3% and 115.32% | 104.0% and 104.06% | 101.4% and 101.46% | 108.8% and 108.82% | 102.0% and 102.06% | 100.6% and 100.61% | 101.8% and 101.85% | 97.5% | 101.5% | Growth Percent [21]: 102.3% and 102.36%; Growth Percent [22]: 84.8% and 84.81% |
| Cc1c(C(=O)NO)sc2ncnc(Nc3ccccc3)c12 [Compound 15b, N-hydroxy-5-methyl-4-(phenylamino)thieno[2,3-d]pyrimidine-6-carboxamide] | 98.3% and 98.37% | 98.7% and 98.78% | 100.1% and 100.13% | 92.7% and 92.76% | 91.3% and 91.34% | 103.6% and 103.61% | 104.7% and 104.75% | 100.5% and 100.52% | 87.7% | 100.4% and 100.48% | 80.8% | 103.5% | 89.3% and 89.32% | 96.1% and 96.17% | 94.7% and 94.72% | 97.2% and 97.22% | 109.3% and 109.33% | 99.0% and 99.02% | 74.2% and 74.29% | 89.5% and 89.53% | Growth Percent [21]: 92.5% and 92.58%; Growth Percent [22]: 72.7% and 72.78% |
| Cc1c(C(=O)NCCCC(=O)NO)sc2ncnc(Nc3ccc(NC(=O)Nc4cccc(C(F)(F)F)c4)cc3)c12 [Compound 12c, 1–(4-(6-((4-(hydroxyamino)-4-oxobutyl)carbamoyl)-5-methylthieno[2,3-d]pyrimidin-4-ylamino)phenyl)-3–(3-(trifluoromethyl)phenyl)urea] | 107.3% and 107.34% | 107.8% and 107.81% | 106.6% and 106.64% | 100.0% and 100.09% | 99.9% and 99.96% | 103.3% | 93.9% and 93.91% | 104.0% and 104.09% | 116.7% and 116.77% | 107.2% and 107.23% | 105.6% and 105.66% | 102.4% and 102.48% | 105.6% and 105.63% | 99.2% and 99.22% | 110.1% and 110.14% | 108.5% and 108.58% | 107.8% and 107.86% | 100.9% and 100.91% | 70.7% and 70.76% | 109.4% and 109.44% | inhibition at 10 µM ([19]; Homo sapiens, CNS SNB-75, 10 μM): 29.2%; Growth Percent [21]: 98.5% and 98.59%; Growth Percent [22]: 89.6% and 89.64% |
| COc1cccc(NC(=O)Nc2ccc(Nc3ncnc4sc(C(=O)NCCC(=O)NO)c(C)c34)cc2)c1 [Compound 11b, 1–(4-(6-((3-(hydroxyamino)-3-oxopropyl)carbamoyl)-5-methylthieno[2,3-d]pyrimidin-4-ylamino)phenyl)-3–(3-methoxyphenyl)urea] | 96.2% and 96.21% | 105.0% and 105.08% | 102.0% and 102.08% | 90.7% and 90.77% | 99.0% and 99.06% | 103.2% and 103.23% | 100.7% | 104.4% and 104.43% | 104.1% and 104.14% | 92.9% and 92.95% | 83.0% and 83.04% | 107.2% and 107.22% | 87.7% and 87.79% | 102.4% and 102.42% | 91.0% and 91.01% | 104.1% | 116.4% and 116.43% | 95.8% and 95.84% | 83.7% and 83.79% | 103.0% and 103.05% | Growth Percent [21]: 95.3% and 95.33%; Growth Percent [22]: 83.4% and 83.44% |
| Cc1c(C(=O)NCCC(=O)NO)sc2ncnc(Nc3ccc(Cl)cc3)c12 [Compound 19c, 4–(4-chlorophenylamino)-N-(3-(hydroxyamino)-3-oxopropyl)-5-methylthieno[2,3-d]pyrimidine-6-carboxamide] | 107.5% and 107.54% | 104.7% and 104.72% | 114.2% | 98.4% and 98.49% | 99.7% and 99.76% | 105.8% and 105.87% | 105.8% and 105.84% | 102.2% and 102.22% | 105.4% and 105.45% | 107.9% and 107.96% | 119.7% and 119.73% | 108.6% and 108.67% | 106.8% and 106.83% | 105.4% and 105.48% | 112.3% and 112.39% | 109.2% and 109.21% | 101.8% and 101.81% | 102.4% and 102.44% | 91.7% and 91.75% | 102.5% and 102.53% | Growth Percent [21]: 101.7% and 101.73%; Growth Percent [22]: 79.9% and 79.99% |
